Results reported in patent publication US20090275557A1, “Novel Composition for Treatment of Diseases Related to Activated Lymphocytes” (Immune Control, Inc., priority 2008, published 2009).

Tests used:
Assay in all cases: 5-HT receptor binding, displacement of tritiated ligands
Details in all cases: at 10 μM
5-HT1D(h) = target: T1, 5-HT1D(h) (Homo sapiens, UniProt P28221)
T1 construct: from tissue
Method: (§1) 5-HT receptor binding was measured using membrane preparations of brain regions known to be enriched with given 5-HT receptor subtype(s). The assay subsequently measured the displacement of tritiated ligands known to bind to a given 5-HT subtype.
(§2) A receptor binding assay was performed for ICI-1259 and ICI-1260 showing that at 10 μM, these compounds bind receptors 5-HT1A(h), 5-HT1B, 5-HT1D(h), 5-HT2A, 5-HT2A(h), 5-HT2B, 5-HT2C, 5-HT3,5-HT3(h), 5-HT4, 5-HT5A(h), 5-HT6, and 5-HT7.

5-HT3(h) = target: T2, 5-HT3(h) (Homo sapiens, UniProt P46098)
T2 construct: from tissue
T2 sequence (P46098 24-478): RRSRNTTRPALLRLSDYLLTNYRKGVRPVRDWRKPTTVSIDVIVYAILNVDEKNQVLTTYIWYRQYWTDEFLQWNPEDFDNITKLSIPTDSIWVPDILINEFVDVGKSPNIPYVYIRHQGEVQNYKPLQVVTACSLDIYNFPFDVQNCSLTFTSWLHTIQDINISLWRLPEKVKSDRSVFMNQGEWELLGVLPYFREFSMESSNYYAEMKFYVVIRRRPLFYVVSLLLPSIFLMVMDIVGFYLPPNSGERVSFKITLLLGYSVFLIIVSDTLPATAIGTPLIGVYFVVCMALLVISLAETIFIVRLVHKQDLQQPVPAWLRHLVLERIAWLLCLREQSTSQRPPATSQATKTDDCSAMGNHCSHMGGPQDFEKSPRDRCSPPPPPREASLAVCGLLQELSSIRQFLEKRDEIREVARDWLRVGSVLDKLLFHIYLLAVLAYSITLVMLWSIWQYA
Method: as §1, §2

5-HT2B = target: T3, 5-HT2B (Homo sapiens, UniProt P41595)
T3 construct: from tissue
T3 sequence (P41595 whole entry, species assumed): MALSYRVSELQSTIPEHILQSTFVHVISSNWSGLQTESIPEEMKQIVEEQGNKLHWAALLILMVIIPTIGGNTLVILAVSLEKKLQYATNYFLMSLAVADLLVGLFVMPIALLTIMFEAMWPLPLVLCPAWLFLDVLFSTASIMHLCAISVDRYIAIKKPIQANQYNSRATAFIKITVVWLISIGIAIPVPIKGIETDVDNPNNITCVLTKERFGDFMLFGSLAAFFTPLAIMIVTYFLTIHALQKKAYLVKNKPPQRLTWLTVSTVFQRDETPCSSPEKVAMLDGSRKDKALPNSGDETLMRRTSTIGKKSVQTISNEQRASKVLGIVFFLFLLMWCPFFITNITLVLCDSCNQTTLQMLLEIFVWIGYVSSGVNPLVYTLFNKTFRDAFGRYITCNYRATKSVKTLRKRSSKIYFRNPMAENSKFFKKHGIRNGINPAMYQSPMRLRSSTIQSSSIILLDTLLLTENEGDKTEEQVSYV
Method: as §1, §2

5-HT1B = test system: 5-HT1B
Method: as §1, §2

5-HT3 = test system: 5-HT3
Method: as §1, §2

5-HT6 = test system: 5-HT6
Method: as §1, §2

5-HT5A(h) = target: T4, 5-HT5A(h) (Homo sapiens, UniProt P47898)
T4 construct: from tissue
T4 sequence (P47898 whole entry): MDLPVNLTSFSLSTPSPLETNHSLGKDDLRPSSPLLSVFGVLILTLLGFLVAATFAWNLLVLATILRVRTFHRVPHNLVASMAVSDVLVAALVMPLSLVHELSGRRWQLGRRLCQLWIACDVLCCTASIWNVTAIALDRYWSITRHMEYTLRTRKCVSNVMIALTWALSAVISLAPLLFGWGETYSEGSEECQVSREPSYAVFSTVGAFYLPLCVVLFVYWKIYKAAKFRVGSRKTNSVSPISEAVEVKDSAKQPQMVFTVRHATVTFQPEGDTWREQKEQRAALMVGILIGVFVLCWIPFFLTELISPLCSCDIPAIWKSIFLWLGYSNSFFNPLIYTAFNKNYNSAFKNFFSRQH
Method: as §1, §2

5-HT2A(h) = target: T5, 5-HT2A(h) (Homo sapiens, UniProt P28223)
T5 construct: from tissue
T5 sequence (P28223 whole entry): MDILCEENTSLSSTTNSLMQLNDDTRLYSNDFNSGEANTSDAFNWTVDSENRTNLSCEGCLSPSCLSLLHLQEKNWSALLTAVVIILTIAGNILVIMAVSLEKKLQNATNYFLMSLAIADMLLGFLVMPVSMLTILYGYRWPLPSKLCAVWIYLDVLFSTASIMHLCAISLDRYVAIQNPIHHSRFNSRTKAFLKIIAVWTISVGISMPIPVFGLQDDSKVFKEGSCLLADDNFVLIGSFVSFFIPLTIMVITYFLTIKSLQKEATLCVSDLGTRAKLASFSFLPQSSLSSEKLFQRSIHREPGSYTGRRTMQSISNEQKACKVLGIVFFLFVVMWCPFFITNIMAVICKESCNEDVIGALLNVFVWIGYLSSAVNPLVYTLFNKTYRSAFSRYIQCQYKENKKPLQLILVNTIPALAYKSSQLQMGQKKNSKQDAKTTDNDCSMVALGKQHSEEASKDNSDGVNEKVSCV
Method: as §1, §2

Measured: receptor binding

T1 sequence (P28221 whole entry): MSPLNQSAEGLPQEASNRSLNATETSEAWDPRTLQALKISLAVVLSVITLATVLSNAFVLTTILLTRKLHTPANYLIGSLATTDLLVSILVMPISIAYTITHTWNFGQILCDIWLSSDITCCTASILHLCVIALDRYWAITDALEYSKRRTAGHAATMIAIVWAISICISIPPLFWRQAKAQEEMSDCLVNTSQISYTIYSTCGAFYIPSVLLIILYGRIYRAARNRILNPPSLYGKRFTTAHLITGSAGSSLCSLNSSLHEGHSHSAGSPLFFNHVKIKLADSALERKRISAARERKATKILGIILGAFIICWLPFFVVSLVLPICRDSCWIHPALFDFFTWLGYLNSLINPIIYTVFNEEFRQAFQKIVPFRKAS

CNCC(=O)NCCCN1CCC(CCCN2c3ccccc3Sc3ccc(C(F)(F)F)cc32)CC1 [ICI-1259, 2-(methylamino)-N-(3-(4-(3-(2-(trifluoromethyl)-10H-phenothiazin-10-yl)propyl)piperidin-1-yl)propyl)acetamide]
bind: all assays above

NCC(=O)NCCCN1CCC(CCCN2c3ccccc3Sc3ccc(C(F)(F)F)cc32)CC1 [ICI-1260, 2-amino-N-(3-(4-(3-(2-(trifluoromethyl)-10H-phenothiazin-10-yl)propyl)piperidin-1-yl)propyl)acetamide]
bind: all assays above
